Results reported in ChEMBL document CHEMBL3885881, “DrugMatrix”.

Species: Rattus norvegicus
Assay: DrugMatrix - Regimen: Daily Repeat
Format: toxicity, organism-based, Sprague-Dawley
Set-up: regimen Daily Repeat, gender Male, age 6-8 weeks
Settings: in vivo, po, route oral GAVAGE, vehicle 100 % WATER; for ABSOLUTE BASOPHIL / ABSOLUTE EOSINOPHIL / ABSOLUTE LYMPHOCYTE / ABSOLUTE MONOCYTE / ABSOLUTE SEGMENTED NEUTROPHIL / BASOPHIL / EOSINOPHIL / ERYTHROCYTE COUNT / HEMATOCRIT / HEMOGLOBIN / LEUKOCYTE COUNT / LYMPHOCYTE / MEAN CORPUSCULAR HEMOGLOBIN / MEAN CORPUSCULAR HEMOGLOBIN CONCENTRATION / MEAN CORPUSCULAR VOLUME / MONOCYTE / NEUTROPHIL / NUCLEATED RED BLOOD CELLS / PLATELET COUNT: tissue Blood; for ALANINE AMINOTRANSFERASE / ALBUMIN / ALKALINE PHOSPHATASE / ASPARTATE AMINOTRANSFERASE / BLOOD UREA NITROGEN / CARBON DIOXIDE / CHLORIDE / CHOLESTEROL / CREATINE PHOSPHOKINASE / CREATININE / GLUCOSE / LACTATE DEHYDROGENASE / LIPASE / PHOSPHORUS / POTASSIUM / SODIUM / TOTAL BILIRUBIN / TOTAL PROTEIN / URIC ACID: tissue Plasma
[1] = 0 mg/kg, 72 h, dose level Control, time 3 day
[2] = 0 mg/kg, 120 h, dose level Control, time 5 day
[3] = 8 mg/kg, 72 h, dose level Low, time 3 day

CCN(C(C)=O)c1cccc(-c2ccnc3c(C#N)cnn23)c1 [ZALEPLON]
ABSOLUTE BASOPHIL [1]: 0 CELLS/uL
ABSOLUTE EOSINOPHIL [1]: 58.83 CELLS/uL
ABSOLUTE LYMPHOCYTE [1]: 11823.5 CELLS/uL
ABSOLUTE MONOCYTE [1]: 169 CELLS/uL
ABSOLUTE SEGMENTED NEUTROPHIL [1]: 815.33 CELLS/uL
BASOPHIL [1]: 0%
EOSINOPHIL [1]: 0.5%
ERYTHROCYTE COUNT [1]: 5.52 x10E6/uL
HEMATOCRIT [1]: 35.77%
HEMOGLOBIN [1]: 14.28 G/DL
LEUKOCYTE COUNT [1]: 12.87 x10E3/uL
LYMPHOCYTE [1]: 91.67%
MEAN CORPUSCULAR HEMOGLOBIN [1]: 25.92 pg
MEAN CORPUSCULAR HEMOGLOBIN CONCENTRATION [1]: 39.95 G/DL
MEAN CORPUSCULAR VOLUME [1]: 64.85 fL
MONOCYTE [1]: 1.33%
NEUTROPHIL [1]: 6.5%
NUCLEATED RED BLOOD CELLS [1]: 0 /100WBC
PLATELET COUNT [1]: 1246.17 x10E3/uL
ALANINE AMINOTRANSFERASE [1]: 66 u/L
ALBUMIN [1]: 4.25 G/DL
ALKALINE PHOSPHATASE [1]: 416 u/L
ASPARTATE AMINOTRANSFERASE [1]: 106.17 u/L
BLOOD UREA NITROGEN [1]: 12.67 mg/dL
CARBON DIOXIDE [1]: 31.83 mmol/L
CHLORIDE [1]: 102.5 MEQ/L
CHOLESTEROL [1]: 69 mg/dL
CREATINE PHOSPHOKINASE [1]: 601.83 u/L
CREATININE [1]: 0.18 mg/dL
GLUCOSE [1]: 154.5 mg/dL
LACTATE DEHYDROGENASE [1]: 301.83 u/L
LIPASE [1]: 11.17 u/L
PHOSPHORUS [1]: 12.08 mg/dL
POTASSIUM [1]: 6.12 MEQ/L
SODIUM [1]: 145.2 MEQ/L
TOTAL BILIRUBIN [1]: 0.17 mg/dL
TOTAL PROTEIN [1]: 6.1 G/DL
URIC ACID [1]: 1.57 mg/dL
ABSOLUTE BASOPHIL [2]: 0 CELLS/uL
ABSOLUTE EOSINOPHIL [2]: 19.33 CELLS/uL
ABSOLUTE LYMPHOCYTE [2]: 12577.83 CELLS/uL
ABSOLUTE MONOCYTE [2]: 106.33 CELLS/uL
ABSOLUTE SEGMENTED NEUTROPHIL [2]: 896.5 CELLS/uL
BASOPHIL [2]: 0%
EOSINOPHIL [2]: 0.17%
ERYTHROCYTE COUNT [2]: 5.84 x10E6/uL
HEMATOCRIT [2]: 36.88%
HEMOGLOBIN [2]: 14.48 G/DL
LEUKOCYTE COUNT [2]: 13.6 x10E3/uL
LYMPHOCYTE [2]: 92.17%
MEAN CORPUSCULAR HEMOGLOBIN [2]: 24.85 pg
MEAN CORPUSCULAR HEMOGLOBIN CONCENTRATION [2]: 39.3 G/DL
MEAN CORPUSCULAR VOLUME [2]: 63.23 fL
MONOCYTE [2]: 0.83%
NEUTROPHIL [2]: 6.83%
NUCLEATED RED BLOOD CELLS [2]: 0 /100WBC
PLATELET COUNT [2]: 1223.5 x10E3/uL
ALANINE AMINOTRANSFERASE [2]: 55.33 u/L
ALBUMIN [2]: 4.08 G/DL
ALKALINE PHOSPHATASE [2]: 355.5 u/L
ASPARTATE AMINOTRANSFERASE [2]: 87.67 u/L
BLOOD UREA NITROGEN [2]: 15.33 mg/dL
CARBON DIOXIDE [2]: 33.83 mmol/L
CHLORIDE [2]: 99.67 MEQ/L
CHOLESTEROL [2]: 72.17 mg/dL
CREATINE PHOSPHOKINASE [2]: 268.33 u/L
CREATININE [2]: 0.15 mg/dL
GLUCOSE [2]: 152.5 mg/dL
LACTATE DEHYDROGENASE [2]: 212.67 u/L
LIPASE [2]: 10.83 u/L
PHOSPHORUS [2]: 11.65 mg/dL
POTASSIUM [2]: 6.73 MEQ/L
SODIUM [2]: 142.43 MEQ/L
TOTAL BILIRUBIN [2]: 0.23 mg/dL
TOTAL PROTEIN [2]: 6.07 G/DL
URIC ACID [2]: 1.7 mg/dL
ABSOLUTE BASOPHIL [3]: 0 CELLS/uL
ABSOLUTE EOSINOPHIL [3]: 0 CELLS/uL
ABSOLUTE LYMPHOCYTE [3]: 15455.33 CELLS/uL
ABSOLUTE MONOCYTE [3]: 295 CELLS/uL
ABSOLUTE SEGMENTED NEUTROPHIL [3]: 1116.33 CELLS/uL
BASOPHIL [3]: 0%
EOSINOPHIL [3]: 0%
ERYTHROCYTE COUNT [3]: 5.86 x10E6/uL
HEMATOCRIT [3]: 37.3%
HEMOGLOBIN [3]: 14.83 G/DL
LEUKOCYTE COUNT [3]: 16.87 x10E3/uL
LYMPHOCYTE [3]: 91.67%
MEAN CORPUSCULAR HEMOGLOBIN [3]: 25.33 pg
MEAN CORPUSCULAR HEMOGLOBIN CONCENTRATION [3]: 39.77 G/DL
MEAN CORPUSCULAR VOLUME [3]: 63.67 fL
MONOCYTE [3]: 1.67%
NEUTROPHIL [3]: 6.67%
NUCLEATED RED BLOOD CELLS [3]: 0 /100WBC
PLATELET COUNT [3]: 1367.67 x10E3/uL
ALANINE AMINOTRANSFERASE [3]: 54.67 u/L
ALBUMIN [3]: 4.17 G/DL
ALKALINE PHOSPHATASE [3]: 303 u/L
ASPARTATE AMINOTRANSFERASE [3]: 88.33 u/L
BLOOD UREA NITROGEN [3]: 12 mg/dL
CARBON DIOXIDE [3]: 32.67 mmol/L
CHLORIDE [3]: 101.67 MEQ/L
CHOLESTEROL [3]: 70.67 mg/dL
CREATINE PHOSPHOKINASE [3]: 534 u/L
CREATININE [3]: 0.2 mg/dL
GLUCOSE [3]: 151 mg/dL
LACTATE DEHYDROGENASE [3]: 218 u/L
LIPASE [3]: 13.67 u/L
PHOSPHORUS [3]: 12.87 mg/dL
POTASSIUM [3]: 6.77 MEQ/L
SODIUM [3]: 145.17 MEQ/L
TOTAL BILIRUBIN [3]: 0.17 mg/dL
TOTAL PROTEIN [3]: 5.9 G/DL
URIC ACID [3]: 1.7 mg/dL
